Measurements as given in patent publication US20200071316A1, “ACTIVATORS OF THE RETINOIC ACID INDUCIBLE GENE "RIG-I" PATHWAY AND METHODS OF USE THEREOF” (Kineta Immuno-Oncology LLC, priority 2018, published 2020).

Experiments:
[1] = tested on: IRF3 signaling pathway (IRF-inducible ISG54 promotor) in THP1-Lucia ISG cells; test: THP1-Lucia ISG reporter assay: induction of IRF3-dependent luciferase activity; type: cell-based; details: Homo sapiens, 10 μM compound, PMA-differentiated cells, 18 h after stimulation, read-out: THP1 ISG: fold increase of IRF3-dependent luciferase activity over background
Outline: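 PMA-differentiated (100 ng/ml) reporter cells, parental and IRF3−/−, stimulated with compounds at 5–20 μM (mostly 10 μM). Secreted luciferase measured 18 h later. Scored as fold increase over untreated background in bands from "−" (<2.4-fold) to "+++++" (≥40-fold).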

[2] = tested on: murine CT26 colon carcinoma cells; test: Compound-induced immunogenic cell death: calreticulin translocation to cell surface (MFI of CRT+ LDV− cells); type: cell-based; details: 18 h after treatment, dose titration, FIG. 1B
Text: (§1) To determine if the RIG-I agonist compounds induce immunogenic cell death in cancer cells, induction of apoptosis and the translocation or of calreticulin (CRT) to the cell surface in murine CT26 colon carcinoma cells were evaluation. The translocation of CRT occurs as part of a specific RIG-I dependent danger-signaling system, and the presence of CRT on the cell membrane promotes tumor antigen uptake by the dendritic cells and leads to the induction of am antigen-specific T cell response
(§2) The induction of apoptosis and the CRT translocation was measured by flow cytometry. […] Cells were harvested 18 h after treatment and then prepared for flow cytometry using an Annexin V staining kit (Biolegend) for quantification of apoptosis, an anti-CRT antibody (Abgent) for calreticulin translocation, and the Live/Dead-Violet staining kit (Thermofisher) for cell viability. Induction of apoptosis and translocation of calreticulin (CRT) to cell surface by live cells was determined by tri-color flow cytometry using FITC-labeled Annexin V, Live/Dead-Violet (LDV), and APC-anti-CRT. Apoptotic cells were defined as Annexin V^+ and calreticulin translocation to cell surface was quantified by mean fluorescent intensity (MFI) of calreticulin^+ live cells (CRT^+ LDV^−). […]

[3] = tested on: murine CT26 colon carcinoma cells; test: Compound-induced immunogenic cell death: apoptosis (Annexin V+) by flow cytometry; type: cell-based; details: 18 h after treatment, dose titration, FIG. 1A
Text: as §1, §2

[4] = tested on: RIG-I deficient CT26 RIG-1−/− cells; test: CXCL10 secretion in RIG-I deficient CT26 RIG-1−/− cells (ELISA); type: cell-based, murine; details: 10 μM compound, 24 h
Outline: (§3)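 Murine CT26 colon carcinoma cells, and CRISPR-generated RIG-I knockout CT26 cells, were seeded at 1×10^4 cells/well and grown 24 h at 37 °C, 5% CO2, then treated with compounds at 5 to 20 μM. CXCL10 in supernatants was measured by ELISA 24 h after stimulation.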

[5] = tested on: CXCL10 secretion by CT26 cells; test: RIG-I dependent CXCL10 secretion by CT26 colon carcinoma cells (ELISA); type: cell-based, murine; details: 10 μM compound, 24 h
Outline: as §3

[6] = tested on: THP1-Lucia ISG IRF3 −/− cells; test: IRF3-deficient THP1-Lucia ISG IRF3 −/− reporter assay (counter-screen); type: cell-based; details: Homo sapiens, 10 μM compound, 18 h after stimulation, read-out: THP1 ISG IRF3 −/−: fold increase of luciferase activity over background
Outline: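 PMA-differentiated (100 ng/ml) reporter cells carrying ISRE/ISG54 minimal promoter-driven secreted luciferase were stimulated with compounds at 5–20 μM (mostly 10 μM). Luciferase measured 18 h later and expressed as fold increase over untreated background, binned from "−" (<2.4-fold) to "+++++" (≥40-fold).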

| Structure (SMILES) | fold induction at 10 µM [1] | induction of immunogenic cell death: calreticulin translocation to cell surface [2] | induction of immunogenic cell death: apoptosis (Annexin V+) [3] | CXCL10 secretion by CT26 RIG-I −/− cells [4] | CXCL10 secretion by CT26 cells [5] | fold induction at 10 µM [6] |
| --- | --- | --- | --- | --- | --- | --- |
| O=C(Nc1c(Cl)cccc1Cl)c1ccc2nc(NC(=O)c3cc4ccccc4cc3OCCCCN3CCOCC3)sc2c1 [Example 19, N-(2,6-dichlorophenyl)-2-{3-[4-(morpholin-4-yl)butoxy]naphthalene-2-amido}-1,3-benzothiazole-6-carboxamide] | 5 to 9.9 | induction of immunogenic cell death | induction of immunogenic cell death | − (“−” indicates less than 100 pg/mL) | ++++ (“++++” indicates 800 to 1599 pg/mL) | < 2.4 |
| O=C(Nc1nc2ccc(S(=O)(=O)N3CCCC3)cc2s1)c1cc2ccccc2cc1OCCCCN1CCC(F)(F)CC1 [Example 80, 3-[4-(4,4-difluoropiperidin-1-yl)butoxy]-N-[6-(pyrrolidine-1-sulfonyl)-1,3-benzothiazol-2-yl]naphthalene-2-carboxamide] | 20 to 39 | – | – | − (“−” indicates less than 100 pg/mL) | ++++ (“++++” indicates 800 to 1599 pg/mL) | < 2.4 |
